Source: paper PMC6271259, “Design, Synthesis and SAR Study of Novel Trisubstituted Pyrimidine Amide Derivatives as CCR4 Antagonists” (Molecules, 2014)

What was measured:
CCR4 = target: T1, CCR4 (Homo sapiens, UniProt P51679); test: CCR4-MDC chemotaxis inhibition assay (48-well Boyden chamber, L1.2 cells transfected with pcDI-CCR4); format: cell-based; conditions: for Chemotaxis inhibition activity against CCR4 (in words, compared with compound 1): CCR4-MDC chemotaxis inhibition assay, compound 1 as positive control; for IC50: MDC 10 ng/mL, L1.2 cells transfected with pcDI-CCR4, compound preincubation 30 min at 37 °C, chamber 6 h, assayed three times, NA = no significant inhibition
T1 construct: expressed in transfected cells; host or cells: L1.2 cells transfected with pcDI-CCR4
T1 sequence (P51679 1-360): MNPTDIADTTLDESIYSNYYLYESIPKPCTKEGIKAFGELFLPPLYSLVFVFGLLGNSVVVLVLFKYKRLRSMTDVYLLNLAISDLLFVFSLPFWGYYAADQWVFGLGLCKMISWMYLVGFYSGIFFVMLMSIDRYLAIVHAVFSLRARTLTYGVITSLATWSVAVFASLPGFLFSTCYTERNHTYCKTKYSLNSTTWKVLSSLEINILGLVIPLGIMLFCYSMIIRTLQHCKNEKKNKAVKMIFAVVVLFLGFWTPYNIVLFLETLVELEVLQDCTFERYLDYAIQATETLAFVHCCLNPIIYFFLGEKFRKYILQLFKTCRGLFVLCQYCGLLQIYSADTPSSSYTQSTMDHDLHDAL
Experimental: All the newly synthesized compounds were evaluated by a CCR4-MDC chemotaxis inhibition assay. Compound 1 was employed as the positive control.
The quantitative chemotaxis assays were performed using 48-well Boyden chambers (Neutroprobe, Bethesda, MD, USA) with polyvinylpyrrolidone-free polycarbonate filters with 5 μm pores. The MDC (Peprotech, Rocky Hill, NJ, USA) with a final concentration of 10 ng/mL was added into the lower wells. The L1.2 cells that were transfected with pcDI-CCR4 were suspended in assay buffer at 3 × 10^6 cells/mL, incubated with various final concentrations of compounds for 30 min at 37 °C, and then added to the upper wells. The chamber was incubated for 6 h at 37 °C in an atmosphere containing 5% CO2, and then the upper chambers were removed. The chemotaxis buffer in the lower wells was then harvested and mixed with 25 μL of the luciferase-containing reagent, Cell-Titer Glo. The number of L1.2 cells in the lower well medium was measured with a Veritas Microplate Luminometer (Turner BioSystems, Sunnyvale, CA, USA). All samples were assayed three times. The negative control samples and solvent control samples were defined as the cells migrating toward the lower wells in the absence of chemokine, and as the cells migrating toward the MDC-containing lower wells in the absence of compound in the presence of DMSO, respectively. The percentage of inhibition was determined by the following equation: inhibition = (C − A)/(C − B) × 100%, where A indicates the number of cells in the sample, B indicates the number of cells in the negative control sample and C indicates the number of cells in the solvent control sample. The results are expressed as an IC50 value (sample concentration that inhibits 50% chemotaxis) and calculated using Origin 8.0 software.

CCR4-positive cells = test system: CCR4-positive cells; parameters: method as in earlier work; conditions: migration induced by MDC, TARC, and CKLF1; cited from earlier work

Row | Structure (SMILES) | Chemotaxis inhibition activity against CCR4 (in words, compared with compound 1) (CCR4) | IC50 (CCR4) [nM] | melting point [°C] | Inhibition of migration of CCR4-positive cells (CCR4-positive cells)
1 | O=C([C@H]1CCCCN1)N1CCN(c2nc(Cl)cc(NCc3ccc(F)cc3F)n2)CC1 [Compound 6e] | slightly reduced activity | 94 ± 17 | 87.2 to 89 | 
2 | Cc1cc(NCc2ccc(Cl)cc2Cl)nc(N2CCN(C(=O)[C@H]3CCCCN3)CC2)n1 [Compound 12a, (R)-2-[4-(Piperidin-2-yl)carbonylpiperazino]-N-(2,4-dichlorobenzyl)-6-methylpyrimidin-4-amine] |  | 77 ± 13 | 82.6 to 84.5 | 
3 | Cc1cc(NCc2ccc(Cl)cc2Cl)nc(N2CCN(C(=O)CN(C)C)CC2)n1 [Compound 12b, 2-[4-(N,N-dimethylaminomethyl)carbonylpiperazino]-N-(2,4-dichlorobenzyl)-6-methyl pyrimidin-4-amine] |  | 69 ± 15 |  | 
4 | Cc1cc(NCc2ccc(Cl)cc2Cl)nc(N2CCN(C(=O)[C@H]3CCCO3)CC2)n1 [Compound 12d, (R)-2-[4-(Tetrahydrofuran-2-yl)carbonylpiperazino]-N-(2,4-dichlorobenzyl)-6-methylpyrimidin-4-amine] | relatively weak activity | 235 ± 45 | 124.3 to 125.8 | 
5 | CN(C)CC(=O)N1CCN(c2nc(Cl)cc(NCc3ccc(Cl)cc3Cl)n2)CC1 [Compound 6c, 6-Chloro-2-[4-(N,N-dimethylaminomethyl)carbonylpiperazino]-N-(2,4-dichlorobenzyl)pyrimidin-4-amine] |  | 64 ± 15 | 166.5 to 168.5 | 
6 | O=C([C@H]1CCCCN1)N1CCN(c2nc(Cl)cc(NCc3ccc(Cl)cc3)n2)CC1 [Compound 6d, (R)-6-Chloro-2-[4-(piperidin-2-yl)carbonylpiperazino]-N-(4-chlorobenzyl)pyrimidin-4-amine] | significantly reduced activity | 458 ± 51 |  | 
7 | O=C(C1CCCCC1)N1CCN(c2nc(Cl)cc(NCc3ccc(Cl)cc3Cl)n2)CC1 [Compound 6b, 6-Chloro-2-(4-cyclohexylcarbonylpiperazino)-N-(2,4-dichlorobenzyl)pyrimidin-4-amine] | did not result in significant inhibition activity |  | 175.3 to 177.1 | 
8 | O=C([C@H]1CCCCN1)N1CCN(c2nc(NCc3ccc(Cl)cc3Cl)cc(N3CCCCC3)n2)CC1 [Compound 7a, (R)-2-[4-(Piperidin-2-yl)carbonylpiperazino]-N-(2,4-dichlorobenzyl)-6-piperidino pyrimidin-4-amine] | relatively poorer activity | 133 ± 21 |  | 
9 | Cc1cc(NCc2ccc(Cl)cc2Cl)nc(N2CCN(C(=O)C3CCN(C)CC3)CC2)n1 [Compound 12c, 2-[4-(N-methylpiperidin-4-yl)carbonylpiperazino]-N-(2,4-dichlorobenzyl)-6-methylpyrimidin-4-amine] | relatively weak activity | 178 ± 28 | 146.4 to 148 | 
10 | O=C([C@H]1CCCCN1)N1CCN(c2nc(NCc3ccc(Cl)cc3Cl)cc(N3CCOCC3)n2)CC1 [Compound 7b, (R)-2-[4-(Piperidin-2-yl)carbonylpiperazino]-N-(2,4-dichlorobenzyl)-6-morpholino pyrimidin-4-amine] | relatively poorer activity | 395 ± 66 | 167.8 to 169.5 | 
11 | O=C([C@H]1CCCCN1)N1CCN(c2nc(Cl)cc(NCc3ccc(Cl)cc3Cl)n2)CC1 [Compound 1] |  | 78 ± 13 |  | inhibit the migration of CCR4-positive cells
12 | O=C(c1ccccn1)N1CCN(c2nc(Cl)cc(NCc3ccc(Cl)cc3Cl)n2)CC1 [Compound 6a, 6-Chloro-2-[4-(pyridin-2-yl)carbonylpiperazino]-N-(2,4-dichlorobenzyl)pyrimidin-4-amine] | did not result in significant inhibition activity |  |  | 
